Assay results: patent US8410284B2, “Cyclic benzimidazole derivatives useful as anti-diabetic agents” (Merck Sharp & Dohme Corp, priority 2008, dated 2013)

Target: recombinant human AMPK complex 1 (containing α1β1γ1) (Homo sapiens, UniProt Q13131+Q9Y478)
Assay: In vitro AMPK activation assay (AMPKSAMSF)
Assay type: biochemical
Conditions: recombinant human AMPK complex 1 (α1β1γ1); for Emax: read-out: maximum AMP activation; for % Maximum AMP Activation of human AMPK Complex 1: basal activity subtracted
Description: AMPKSAMSF (In Vitro AMPK Activation Assay)
The recombinant human AMPK complex 1 (containing α1β1γ1) was obtained from baculovirus expression system. Recombinant viruses were generated by cotransfection of AMPK/pBacPak9 clones with Baculogold baculovirus DNA (Pharmingen) in spodoptera frugiperda 21 cells according to the manufacturer's instructions. Each round of virus amplification was performed for 5 days in Grace's medium containing 10% serum. Virus that had been subjected to three rounds of amplification was used for all protein production procedures. To express the AMPK complex, sf21 cells were adapted to serum free medium (SF900 II, Invitrogen) by sequential dilution from serum containing stocks into SF900 II medium and maintained in shaker flasks at 90 rpm at 27° C. The recombinant AMPK enzyme complex was produced by triple infection, one recombinant virus for each of the subunits, in sf21 cells under serum free conditions. Cells were infected in log phase, 1×10^6 cells/ml, at a multiplicity of infection of ˜5. Cells were harvested by centrifugation at 10,000×g for 15 minutes after 72 hours of infection with viruses. The insect cell pellet from 2 liters of culture was resuspended in 50 ml lysis buffer (20 mM Tris-HCl, 50 mM NaCl, 50 mM NaF, 30 mM Na PPi, 0.25 M sucrose, 10 mM ZnCl2, 2 mM DTT, 0.4 mg/ml digitonin) and subjected to two cycles of freeze-thaw lysis in a dry-ice ethanol bath. Insoluble material was removed by centrifugation at 10,000×g and the supernatant was fractionated with use of polyethylene glycol (PEG). The protein fraction precipitating between 2.5 and 6% PEG was used for further purification using a Blue-Sepharose step (Zhou et al, J. Clin. Invest. 108, 1167-1174, 2001).
The total in vitro AMPK activation assay volume is 50 μl in a 96-well plate. The reaction mixture contained 100 μM ATP (0.5 μCi ^33P-ATP per reaction), and 50 μM SAMS (HMRSAMSGLHLVKRR) in a buffer (20 mM HEPES, pH 7.0, 5 mM MgCl2, 0.01% Brij35). The reaction was initiated with addition of the enzyme. After 30-minute incubation at 30° C., the reaction was stopped by addition of 80 μl 1% H3PO4. Aliquots (100 μl) were transferred to 96-well MultiScreen plates (MAPHNOB50; Millipore Corp., Bedford, Mass., USA). The plate was washed three times with 1% H3PO4 followed by detection in a Top-count. The counts per minute from the basal activity (the reaction without activator) was subtracted from each well and the data were expressed as % maximum AMP activation followed by EC50 calculation.

recombinant human AMPK complex 1 (containing α1β1γ1), sequence (Q13131 whole entry): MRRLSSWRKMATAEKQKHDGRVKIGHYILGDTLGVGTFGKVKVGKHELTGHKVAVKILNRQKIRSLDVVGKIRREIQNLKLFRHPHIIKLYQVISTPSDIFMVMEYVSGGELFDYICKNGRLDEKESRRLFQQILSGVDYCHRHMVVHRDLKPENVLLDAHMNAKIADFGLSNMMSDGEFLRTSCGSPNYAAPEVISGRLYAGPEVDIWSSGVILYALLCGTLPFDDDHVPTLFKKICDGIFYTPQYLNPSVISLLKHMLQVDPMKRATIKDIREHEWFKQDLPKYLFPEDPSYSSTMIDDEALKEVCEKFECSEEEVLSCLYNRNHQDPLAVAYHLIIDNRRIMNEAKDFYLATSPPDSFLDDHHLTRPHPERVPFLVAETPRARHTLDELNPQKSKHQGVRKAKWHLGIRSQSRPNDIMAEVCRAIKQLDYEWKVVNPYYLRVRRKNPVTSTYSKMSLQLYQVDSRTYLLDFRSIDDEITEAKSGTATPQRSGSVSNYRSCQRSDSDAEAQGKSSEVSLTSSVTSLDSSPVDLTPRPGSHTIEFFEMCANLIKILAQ
recombinant human AMPK complex 1 (containing α1β1γ1), sequence (Q9Y478 whole entry): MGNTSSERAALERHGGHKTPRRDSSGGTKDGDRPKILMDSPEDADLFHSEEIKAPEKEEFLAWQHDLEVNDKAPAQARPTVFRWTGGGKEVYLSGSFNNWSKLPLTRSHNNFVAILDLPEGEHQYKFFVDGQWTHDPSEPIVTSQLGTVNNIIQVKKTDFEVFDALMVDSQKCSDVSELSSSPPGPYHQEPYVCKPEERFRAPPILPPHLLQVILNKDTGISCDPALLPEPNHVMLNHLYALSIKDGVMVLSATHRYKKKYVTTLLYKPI
recombinant human AMPK complex 1 (containing α1β1γ1), sequence (P54619 whole entry partner): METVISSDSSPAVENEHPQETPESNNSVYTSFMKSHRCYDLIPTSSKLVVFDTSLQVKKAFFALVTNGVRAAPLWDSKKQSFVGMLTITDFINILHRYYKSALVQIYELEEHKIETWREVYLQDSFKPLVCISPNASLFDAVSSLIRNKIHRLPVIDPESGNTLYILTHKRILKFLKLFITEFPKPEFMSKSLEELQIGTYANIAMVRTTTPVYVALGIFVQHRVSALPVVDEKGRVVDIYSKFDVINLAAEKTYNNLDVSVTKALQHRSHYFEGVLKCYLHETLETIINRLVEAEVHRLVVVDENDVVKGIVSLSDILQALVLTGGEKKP

| Structure (SMILES) | Emax | EC50 | % Maximum AMP Activation of human AMPK Complex 1 |
| --- | --- | --- | --- |
| Cc1ccc(Oc2nc3cc(-c4ccc(-c5ccccc5)cc4)c(Cl)cc3[nH]2)cc1[P@@]1(=O)OCC[C@H](c2cccc(Cl)c2)O1 (relative stereo) [Example 19, Trans-5-Biphenyl-4-yl-6-chloro-2-[3-[4-(3-chloro-phenyl)-2-oxo-2-lambda*5*-[1,3,2]dioxaphosphinan-2-yl]-4-methyl-phenoxy]-1H-benzoimidazole] | > 80% |  |  |
| Cc1ccc(Oc2nc3cc(-c4ccc(-c5ccccc5)cc4)c(Cl)cc3[nH]2)cc1[P@@]1(=O)OCC[C@@H](c2cccc(Cl)c2)O1 (relative stereo) [Example 20, Cis-5-Biphenyl-4-yl-6-chloro-2-[3-[4-(3-chloro-phenyl)-2-oxo-2-lambda*5*-[1,3,2]dioxaphosphinan-2-yl]4-methyl-phenoxy]-1H-benzoimidazole] | > 80% |  |  |
| Cc1ccc(Oc2nc3cc(-c4ccc(-c5ccccc5)cc4)c(Cl)cc3[nH]2)cc1[P@@]1(=O)OCC[C@H](c2ccncc2)O1 (relative stereo) [Example 21, Trans-5-Biphenyl-4-yl-6-chloro-2-[4-methyl-3-(2-oxo-4-pyridin-4-yl-2lambda*5*-[1,3,2]dioxophosphinan-2-yl)-phenoxy]-1H-benzoimidazole] | > 80% |  |  |
| Cc1ccc(Oc2nc3cc(-c4ccc(-c5ccccc5)cc4)c(Cl)cc3[nH]2)cc1[P@@]1(=O)OCC[C@@H](c2ccncc2)O1 (relative stereo) [Example 22, Cis-5-Biphenyl-4-yl-6-chloro-2-[4-methyl-3-(2-oxo-4-pyridin-4-yl-2lambda*5*-[1,3,2]dioxophosphinan-2-yl)-phenoxy]-1H-benzoimidazole] | > 80% |  |  |
| O=[P@@]1(c2cccc(Oc3nc4cc(-c5ccc(-c6ccccc6)cc5)c(Cl)cc4[nH]3)c2)OCC[C@@H](c2cccc(Cl)c2)O1 (relative stereo) [Example 23, Trans-5-Biphenyl-4-yl-6-chloro-2-[3-4-(3-chloro-phenyl)-2-oxo-2-lambda*5*-[1,3,2]dioxaphosphinan-2-ylphenoxy]-1H-benzoimidazole] | > 80% |  |  |
| Cc1ccc(Oc2nc3cc(-c4ccc(-c5ccccc5)cc4)c(Cl)cc3[nH]2)cc1P(=O)(O)O [Example 1, ((5-(4-Biphenyl)-6-chloro-1H-benzimidazol-2-yl)oxo)-4-methylphen-3-ylphosphonic acid] | > 80% | 0.9 nM | 175% |
| Cc1ccc(Oc2nc3cc(C#Cc4ccccc4)c(Cl)cc3[nH]2)cc1P(=O)(O)O [Example 3, ((6-Chloro-5-phenylethynyl-1H-benzimidazol-2-yl)oxo)-4-methylphen-3-ylphosphonic acid] | > 80% | 0.7 nM | 192% |
| Cc1ccc(Oc2nc3cc(-c4ccc(N5CCOCC5)cc4)c(Cl)cc3[nH]2)cc1P(=O)(O)O [Example 4, {5-[6-Chloro-5-(4-morpholin-4-yl-phenyl)-1H-benzoimidazol-2-yloxy]-2-methylphenyl}-phosphonic acid] | > 80% |  |  |
| Cc1ccc(Oc2nc3cc(-c4ccc(C5CCCCC5)cc4)c(Cl)cc3[nH]2)cc1P(=O)(O)O [Example 5, {5-[6-Chloro-5-(4-cyclohexyl-phenyl)-1H-benzoimidazol-2-yloxy]-2-methylphenyl}phosphonic acid] | > 80% | 4.9 nM | 257% |
| Cc1ccc(Oc2nc3cc(-c4ccc(N5CCCC5)cc4)c(Cl)cc3[nH]2)cc1P(=O)(O)O [Example 6, {5-[6-Chloro-5-(4-pyrrolidin-1-yl-phenyl)-1H-benzoimidazol-2-yloxy]-2-methyl-phenyl}phosphonic acid] | > 80% | 1.1 nM | 223% |
| O=P(O)(O)c1cccc(Oc2nc3cc(-c4ccc(N5CCOCC5)cc4)c(Cl)cc3[nH]2)c1 [Example 7, {3-[6-Chloro-5-(4-morpholin-4-yl-phenyl)-1H-benzoimidazol-2-yloxy]phenyl}phosphonic acid] | > 80% |  |  |
| Cc1ccc(Oc2nc3cc(-c4ccc(N5CCOCC5)cc4)c(Cl)cc3[nH]2)cc1P(=O)(O)O [Example 8, 5-(5-chloro-6-(4-morpholinophenyl)-1H-benzo[d]imidazol-2-yloxy)-2-methylphenylphosphonic acid] |  | 1.2 nM | 224% |
| Cc1ccc(Oc2nc3cc(-c4ccc5c(ccn5C)c4)c(Cl)cc3[nH]2)cc1P(=O)(O)O [Example 9, 5-(5-chloro-6-(1-methyl-1H-indol-5-yl)-1H-benzo[d]imidazol-2-yloxy)-2-methylphenylphosphonic acid] | > 80% |  |  |
| COc1ccc(C#Cc2cc3nc(Oc4ccc(C)c(P(=O)(O)O)c4)[nH]c3cc2Cl)cc1 [Example 10, 5-(5-chloro-6-(2-(4-methoxyphenyl)ethynyl)-1H-benzo[d]imidazol-2-yloxy)-2-methylphenylphosphonic acid] | > 80% |  |  |
| O=P(O)(O)c1cncc(Oc2nc3cc(-c4ccc(-c5ccccc5)cc4)c(Cl)cc3[nH]2)c1 [Example 12, [5-(5-Biphenyl-4-yl-6-chloro-1H-benzoimidazol-2-yloxy)-pyridin-3-yl]-phoshponic acid] | > 80% |  |  |
| O=P(O)(O)c1cccc(Oc2nc3cc(-c4ccc(-c5ccccc5)cc4)c(F)cc3[nH]2)c1 [Example 13, {3-[(5-biphenyl-4-yl-6-fluoro-1H-benzimidazol-2-yl)oxy]phenyl}phosphonic acid] | > 80% |  |  |
| O=C(c1cccc(P(=O)(O)O)c1)c1nc2cc(-c3ccc(-c4ccccc4)cc3)c(Cl)cc2[nH]1 [Example 14, {3-[(5-biphenyl-4-yl-6-chloro-1H-benzimidazol-2-yl)carbonyl]phenyl}phosphonic acid] | > 80% |  |  |
| O=P(O)(O)c1cccc(C(F)(F)c2nc3cc(-c4ccc(-c5ccccc5)cc4)c(Cl)cc3[nH]2)c1 [Example 15, {3-[(5-biphenyl-4-yl-6-chloro-1H-benzimidazol-2-yl)(difluoro)methyl]phenyl}phosphonic acid] | > 80% |  |  |
| Cn1ccc2cc(-c3cc4nc(Oc5cccc(P(=O)(O)O)c5)[nH]c4cc3Cl)ccc21 [Example 16, (3-{[6-chloro-5-(1-methyl-1H-indol-5-yl)-1H-benzimidazol-2-yl]oxy}phenyl)phosphonic acid] | > 80% | 0.6 nM | 173% |
| CCOP(C)(=O)c1cccc(Oc2nc3cc(-c4ccc(-c5ccccc5)cc4)c(Cl)cc3[nH]2)c1 (stereo not drawn) [Example 17, [3-(5 Biphenyl-4-yl-6-chloro-1H-benzoimidazol-2-yloxy)-phenyl]-methyl-phosphinic acid ethyl ester] | > 80% |  |  |
| CP(=O)(O)c1cccc(Oc2nc3cc(-c4ccc(-c5ccccc5)cc4)c(Cl)cc3[nH]2)c1 [Example 18, [3-(5-Biphenyl-4-yl-6-chloro-1H-benzoimidazol-2-yloxy)-phenyl]-methyl-phosphinic acid] | > 80% |  |  |
| O=P1(c2cccc(Oc3nc4cc(-c5ccc(-c6ccccc6)cc5)c(Cl)cc4[nH]3)c2)OCCC(c2cccc(Cl)c2)O1 (stereo not drawn) [Example 24, Cis-5-Biphenyl-4-yl-6-chloro-2-[3-4-(3-chloro-phenyl)-2-oxo-2-lambda*5*-[1,3,2]dioxaphosphinan-2-ylphenoxy]-1H-benzoimidazole] | > 80% |  |  |
| O=[P@@]1(c2cccc(Oc3nc4cc(-c5ccc(-c6ccccc6)cc5)c(Cl)cc4[nH]3)c2)OCC[C@@H](c2ccncc2)O1 [Example 25, Trans-5-Biphenyl-4-yl-6-chloro-2-trans-[3-((S)-2-oxo-4-pyridin-4-yl-2lambda*5*-[1,3,2]dioxophosphinan-2-yl)-phenoxy]-1H-benzoimidazole] | > 80% |  |  |
| O=P1(c2cccc(Oc3nc4cc(-c5ccc(-c6ccccc6)cc5)c(Cl)cc4[nH]3)c2)OCCC(c2ccncc2)O1 [Example 26, Cis-5-Biphenyl-4-yl-6-chloro-2-[3-((S)-2-oxo-4-pyridin-4-yl-2lambda*5*-[1,3,2]dioxophosphinan-2-yl)-phenoxy]-1H-benzoimidazole] | > 80% |  |  |
| CCOC(=O)CNP(=O)(NCC(=O)OCC)c1cc(Oc2nc3cc(-c4ccc5c(ccn5C)c4)c(Cl)cc3[nH]2)ccc1C [Example 27, {[6-Chloro-5-(1-methyl-1H-indol-5-yl)-1-H-benzimidazol-2-yl]oxo}-4-methylphen-3-ylphosphono-bis-2-amino-ethanoic acid ethyl ester] | > 80% |  |  |
